Assay results: patent US20060189539A1, “Novel GnRH analogues with antitumour effects and pharmaceutical compositions thereof” (priority 1994, published 2006)
Entries after “also recorded” stand apart in the source; their conditions may differ.

Key:
MDA-MB-231 xenograft = test: In vivo antitumour effect on MDA-MB-231 xenograft; design: species or system immunosuppressed CBA/Ca mice; details: for Animals from 7 treated that became tumour-free: 6th week of treatment, 100 μg daily s.c.; for Tumour-free animals: end of the 6th week, first series
Procedure: (§1) The immunosuppression of mice was carried out by using the method of Steel et al. (1978).
(§2) CBA/Ca female mice of about 6 weeks old were thymectomized and then, after one week, they were irradiated with 60Co (whole body irradiation; the lethal dose is 9.5 Gray). Within 24 hours 3 to 5×10^5 myelocytes were injected to the animals. Beneath the skin of the immunosuppressed mice 2×10^7 tumour cells or, in the case of later passages, about 2 mm^3 of tumour cells or in the case of later, additional passages about 2 mm^3 of tumour pieces were implanted. […] The treatment with steroid hormone was stopped by at least one week before beginning the investigation.
(§3) Recent investigations have begun on 28 animals bearing MCF-7 xenograft .and on 28 animals bearing MDA-MB-231 xenograft. On animals bearing MCF-7 tumour the treatment was commenced in the 5th week following xeno-transplantation; the tumour volume was 205 to 225 mm^3. On animals bearing MDA-MB-231 tumour, the treatment was started in the 4th week after xeno-transplantation with a tumour volume of 140 to 150 mm^3. […] The control groups were daily treated with physiological saline s.c. (Each treated group consisted of 7 animals.)
A more recent study was started on 28 animals bearing. MDA-MB-231 xenograft. The treatment was begun in the 4th or 5th week following xenotransplantation. The tumour volume was 0.165 to 0.194 cm3. […] (For treatment of the control group, see the preceding Examples). Each group consisted of 7 animals.

ovulation of female rats = test: Ovulation / cycle of female rats during treatment for three cycles; format: in vivo, rat; details: high dose of the coupled GnRH-III; three cycles observed
Description: In 1993, researchers isolated and synthesized the Lamprey-III-GnRH decapeptide from lamprey (Petromyzon marinus) (p[…]NH2).
On comparison to healthy individuals, the functioning of the protective mechanism (immunostatus) of patients suffering from tumour is more unfavourable. Since the protective (immune) mechanism is enhanced by the compound, its tumour-inhibiting action can more strongly become valid. […] This effect may particularly be preferred on young patients suffering from mammary tumour, where a castration would cause psychic disturbances. In a way different from other conjugates, P-GFLG-GnRH-III gradually induces an inhibition of continually increasing grade during the long-lasting treatment for 7 weeks; and at the end of treatment, tumour-free animals are observed whereas in the case of other conjugates the degree of inhibition increases only up to the fifth week of treatment, then a stagnation in the grade of inhibition can be observed.

[1] = tested on: MCF-7 human mammary carcinoma cell line; test: Inhibition of colony formation (dose-survival), Example 48; format: cell-based; details: 10 μM
Description: MCF-7 human mammary carcinoma cell line was stabilized in 1973 by Soule et al. from the pleural fluid of a patient suffering from mammary carcinoma. MDA-MB-231 human mammary carcinoma cell line was isolated and stabilized by Cailleau et al. in 1974 similarly from pleural fluid. Both cell lines grow in monolayer. […] MCF-7 cell line is estradiol receptor (ER)-positive containing proteins specifically binding GnRH. Thus, it represents, a useful model system for investigating the direct effect of GnRH mediated by the GnRH receptor. Being ER-negative and GnRH receptor-positive, MDA-MB-231 cell line is similarly suitable to study the direct effect of GnRH. PC3 human prostate carcinoma cell line was stabilized in cell culture by Kaighn et al. in 1979. The cells are of epithelial type and form compact colonies in clonogenic assays. The Ishikawa cell line originates from human endometrial adenocarcinoma [M. Nishida et al.: Acta Obstet. Gynecol. Jpn. 37, 1103-1111 (1985)], it is epithelial in its character and contains steroid-as well as GnRH receptors. The examination gives accurate information about the cell-damaging effect of the substance tested as a function of varying doses. The treatment was carried out once; the colonies formed from the surviving cells were counted after 8-12 days. […] A part of the arrested cells again entered the cycle, an other part of them might be destroyed (apoptosis). […] The treatment was once carried out 24 hours after setting, then the colonies formed were counted after 8-12 days. The cells were treated once after 24 hours with 1-50 μM of various GnRH analogues of Examples above or with 1-50 μM of GnRH-III, respectively. The percentages of inhibition obtained on MCF-7, MDA-MB-231, PC3 and Ishikawa cells, respectively, together with the dose of the active agent used are shown in Table VIII.

[2] = tested on: MCF-7 human mammary carcinoma cell line; test: Inhibition of colony formation (dose-survival), Example 18; format: cell-based; details: 50 μM
Description: (§4) Human cell lines used in in vitro experiments. MCF-7 human mammary tumour cell line was stabilized in 1973 by Soule et al. from the pleural fluid of mammary carcinoma patients. The cells grow in monolayer and are epithelial in their character. MDA-MB-231 human mammary carcinoma cell line was isolated and stabilized in 1974 by Cailleau et al. similarly from pleural fluid. These cells also grow in monolayer. PC3 human prostate carcinoma cell line was stabilized 20 in 1979 in cell culture by Kaighn et al.; the cells are of simple epithelium type and form compact colonies in clonogenic assays. Ishikawa cell line originated from adenocarcinoma of human endometrium [Nishida et al.: Obstet. Gynecol. Jpn, 37, 25 1103-1111 (1985)], has epithelial character and contains steroid as well as GnRH receptors. Human tumour cell lines are maintained in plastic flasks (Greiner) in Dulbecco-6modified Eagle-MEM (DMEM GIBCO) nutritive medium. The medium used herein contained 10% of fetal calf serum (FCS).
(§5) In the case of cytostatics the cell-damaging effect is not cell-specific. […] One part of the arrested cells again go into the cycle, the other part may perish (apoptosis). […] The investigations were carried out on MCF-7 and MDA-MB-231 human mammary carcinoma cell lines, PC3 human prostate 15 carcinoma cell line and Ishikawa human endometrium carcinoma cell line. Threehundred cells were set into Petri dishes of 3.5 cm in diameter each. The treatment was carried out once, 24 hours following the explantation, then the colonies formed were counted after 9 to 12 days.

[3] = tested on: Ishikawa human endometrium carcinoma cell line; test: as above; format: cell-based; details: for Inhibition of colony formation: 30 to 50 μM
Description: as §4, §5

[4] = tested on: PC3 human prostate carcinoma cell line; test: as above; format: cell-based; details: for Inhibition of colony formation: 30 to 50 μM
Description: as §4, §5

[5] = tested on: MDA-MB-231 human mammary carcinoma cell line; test: as above; format: cell-based; details: 50 μM
Description: as §4, §5

[6] = tested on: PC3 human prostate carcinoma cells; test: In vitro inhibition of cell proliferation (cell count), Example 19; format: cell-based; details: 30 μM of active substance, conjugate, treated once
Procedure: The procedure of treatment was as follows. After trypsinization the cells, 400,000 cells of MCF-7, MDA-MB-231 human mammary carcinoma, PC3 human prostate carcinoma or Ishikawa human endometrium tumour each were passed into Petri dishes of 10 cm in diameter. Starting from the day following transfer, the cells were treated with the substances to be tested in solution prepared with the nutrient medium during the exponential growth phase. […]

[7] = tested on: MDA-MB-231 human mammary carcinoma cells; test: as above; format: cell-based; details: 30 μM of active substance, conjugate, treated once, cell count on 7th day
Procedure: (§6) The procedure of treatment was as follows. After trypsinization the cells, 400,000 cells of MCF-7, MDA-MB-231 human mammary carcinoma, PC3 human prostate carcinoma or Ishikawa human endometrium tumour each were passed into Petri dishes of 10 cm in diameter. Starting from the day following transfer, the cells were treated with the substances to be tested in solution prepared with the nutrient medium during the exponential growth phase. The cultures were treated with 1 to 50 μM (calculated for the total volume of the culture) of MI-1544 GnRH antagonist, MI-1892 chicken GnRH antagonist or SJ-1004 GnRH […] on the 7th day.

[8] = tested on: MCF-7 human mammary carcinoma cells; test: as above; format: cell-based; details: 30 μM of active substance, conjugate, treated once, cell count on 7th day
Procedure: as §6

[9] = Castration effect: uterus weight of xenograft-bearing animals; format: in vivo, mice
[10] = tested on: Ishikawa human endometrium tumour cells; details: 30 μM of active substance, conjugate, treated once
Description: The procedure of treatment was as follows. After trypsinization the cells, 400,000 cells of MCF-7, MDA-MB-231 human mammary carcinoma, PC3 human prostate carcinoma or Ishikawa human endometrium tumour each were passed into Petri dishes of 10 cm in diameter. […]

MCF-7 xenograft = test: In vivo antitumour effect on MCF-7 xenograft; design: species or system immunosuppressed CBA/Ca mice; details: for Influence on the rate of tumour growth: first study, conjugates 150 μg in every 3rd day, P-GFLG-OH daily s.c. corresponding to 50 μg
Procedure: as §1, §2
In the case of MCF-7 tumours (xenografts) the examinations were carried out with passages being in the phase of the 37th and 38th, respectively, transplantations.
In the case of mice bearing MCF-7 xenograft, the treatment was begun in the 4th week following xeno-transplantation.
as §3

B-lymphocytes = test: Humoral immune response (antibody production of B-lymphocytes); format: in vivo, mice; details: dose not stated
T-lymphocytes = test: Cellular immune response (rosette formation against BRBC antigen); format: in vivo, mice; details: dose not stated
Description: The immunosuppressive side effect of cytostatics used in tumour therapy is commonly known. This effect can be compensated to a certain grade by various immunostimulants (endotoxin, levamisole). Polypeptides with much […] molecular weights (about 40,000 to 80,000) are also capable of protecting against immunosuppressive effect [Gal et al.: J. Biol. Resp. Modif. 5, 148-159 (1986)). The molecular weight of the novel polyanionic P-GFLG-OH macromolecule tested by us is about 10,000, that of MI-1892 is about 2000, i.e. relatively low; therefore, their immunostimulatory activity was unexpected.

MXT mouse mammary tumour = test: In vivo antitumour effect on MXT mouse mammary tumour; design: species or system CBA/Ca mice; details: 75 μg/day/animal s.c.; day 17
Procedure: The MXT mouse mammary carcinoma contains ER and PgR proteins; furthermore, it contains also GnRH receptors; therefore, this in vivo tumor model is suitable for studying both the direct and indirect effects. The treatment of mice bearing MXT mammary tumour was commenced on the day following transplantation. […] The animals were daily treated in s.c. route starting from the day following transplantation of MXT mouse mammary tumour. […] MI-1544: 75 μg/day/animal; MI-1892: 75 μg/day/animal.

[11] = animals bearing MCF-7 xenografts, treatment for four weeks
[12] = animals bearing MDA-MB-231 xenografts, treatment for twelve weeks

Substance | Animals from 7 treated that became tumour-free (MDA-MB-231 xenograft) | Inhibition of colony formation [3] | Inhibition of colony formation [4] | Tumour-free animals (MDA-MB-231 xenograft) | % Inhibition of cell division [6] | % Inhibition of cell division [7] | % Inhibition of cell division [8] | Decrease of uterus weight [9, 11] | Decrease of uterus weight [9, 12] | % Inhibition of cell division [10] | Inhibition % (MCF-7 xenograft; 1 × 50 μg, week 2) | Influence on the rate of tumour growth (MCF-7 xenograft) | further results
{Lys[n-poly(N-vinylpyrrolidone-co-maleic acid)-Gly-Phe-Leu-Gly-]}8,-GnRH-III [P-GFLG-GnRH-III] | 2 | – | – | – | – | – | – | – | – | – | – | – | Tumour volume (MDA-MB-231 xenograft; 1 × 100 μg daily s.c., week 6): 0.40 cm3; Influence on the cycle of female rats (castration effect) (ovulation of female rats): not influenced
Ac-D-Trp1,3,D-Cpa2,{D-Lys[n-poly-(N-vinylpyrrolidone-co-maleic acid)-Gly-Phe-Leu-Gly]}6. D-Ala10-GnRH [P-GFLG-1544] | 1 | 100% | 100% | A tumour-free animal was found | 68.5% | 45% | 58% | 42% | 50% | 95% | 30% | not influenced | % Inhibition of colony formation [1]: 15%; % Inhibition of colony formation [2]: 100%; % Inhibition of colony formation ([4]; 10 μM): 100%; % Inhibition of colony formation ([4]; 50 μM): 100%; % Inhibition of colony formation [5]: 100%; Tumour volume (MDA-MB-231 xenograft; 1 × 50 μg daily s.c., week 2): 0.21 cm3; Tumour volume (MDA-MB-231 xenograft; 1 × 50 μg daily s.c., week 3): 0.24 cm3; Tumour volume as control (%) (MDA-MB-231 xenograft; 1 × 50 μg daily s.c., week 3): 66%; Tumour volume (MDA-MB-231 xenograft; 1 × 50 μg daily s.c., week 6): 0.36 cm3; Tumour volume as control (%) (MDA-MB-231 xenograft; 1 × 100 μg daily s.c., week 3): 65%; Inhibition % (MCF-7 xenograft; 1 × 50 μg, week 6): 49%; Tumour volume as control (%) (MCF-7 xenograft; 1 × 50 μg, week 6): 51%; Tumour-free animals (MCF-7 xenograft; repeated study, 6th week): a tumour-free animal was found
Ac-D-Trp^1,3,D-Cpa^2,{Lys[n-poly(N-vinyl pyrrolidone-co-maleic acid)-Gly-Phe-Leu-Gly-]}5, [a-Asp(DEA)]6, D-Ala10-GnRH [P-GFLG-1892] | – | 100% | 100% | A tumour-free animal was found | 51% | 42% | 45% | 39% | 20% | 91% | 30% | not influenced | Effect on the humoral immune response (B-lymphocytes): strengthened; also recorded: immunostimulatory effect; % Inhibition of colony formation ([3]; 30 μM): 100%; Tumour volume (MDA-MB-231 xenograft; 1 × 75 μg daily s.c., week 6): 0.33 cm3; Effect on the cellular immune response (activity of T-lymphocytes against BRBC antigen) (T-lymphocytes): increased; also recorded: twofold; Tumour volume as control (%) (MXT mouse mammary tumour): 36%
